Source: patent publication US10421774B2 (priority 2016, dated 2019)
Where two headings read alike, the source gives them in different places.

Tests used:
Experiment in all cases: microbe, parasite or virus in culture
Type in all cases: cell-based, HIV-1
gag V370A/ΔT371 virus = conditions: for EC50: Human immunodeficiency virus 1, MT2, read-out: V370A/ΔT371 EC50; for EC90: Human immunodeficiency virus 1, read-out: V370A/ΔT371 EC90
Method in brief: (§1)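 Virus yield quantified by Renilla luciferase after 4–5 day culture at 37°C of MT-2 cells (10,000/well) with 3-fold serially diluted compound at 1% final DMSO. Reporter viruses were NL4-3 P373S derivatives bearing Gag A364V or V370A/ΔT371, inputs matched on luciferase endpoint.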

[1] = tested on: A364V site directed mutant virus; conditions: for EC50: Human immunodeficiency virus 1, MT2, read-out: A364V EC50; for EC90: Human immunodeficiency virus 1, read-out: A364V EC90
Method in brief: as §1

[2] = tested on: NLRepRlucP373S recombinant wild type (WT) virus
Method in brief: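 Multiple-cycle assay: luciferase-normalized NL4-3-derived NLRepRlucP373S (Renilla luciferase in place of nef) infects MT-2 cells, 10,000 cells/well, with 3-fold compound dilutions at 1% DMSO, 4-5 days, 37 °C. EC50 and EC90 fitted by median effect equation against Renilla luminescence, with residual signal under 3 μM NFV as background.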

[3] = tested on: T332S/V362I/Pr R41G virus; conditions: for EC50: Human immunodeficiency virus 1, MT2, read-out: T332S/V362I/pr41G EC50; for EC90: Human immunodeficiency virus 1, read-out: T332S/V362I/prR41G EC90
Method in brief: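 Multiple-cycle susceptibility: MT-2 cells, 10,000 per well, exposed to 3-fold compound dilutions at 1% DMSO after infection with luciferase-normalized inoculum. Virus: NL4-3-derived Renilla reporter (Gag P373S) with Gag T332S/V362I and protease R41G. Readout Renilla luciferase after 4–5 days, 37 °C.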

[4] = Human immunodeficiency virus 1, MT2, read-out: WT EC50
[5] = Human immunodeficiency virus 1, read-out: WT EC50

C=C(C)[C@@H]1CC[C@]2(NCCN3CCS(=O)(=O)CC3)CC[C@]3(C)[C@H](CC[C@@H]4[C@@]5(C)CC=C(C6=CCC(CCOc7nccc(OC)n7)(C(=O)O)CC6)C(C)(C)[C@@H]5CC[C@]43C)[C@@H]12 (stereo partly drawn) [Example A27, 4-((1R,3aS,5aR,5bR,7aR,11aS,11bR,13aR,13bR)-3a-((2-(1,1-dioxidothiomorpholino)ethyl)amino)-5a,5b,8,8,11a-pentamethyl-1-(prop-1-en-2-yl)-2,3,3a,4,5,5a,5b,6,7,7a,8,11,11a,11b,12,13,13a,13b-octadecahydro-1H-cyclopenta[a]chrysen-9-yl)-1-(2-((4-methoxypyrimidin-2-yl)oxy)ethyl)cyclohex-3-ene-1-carboxylic acid]
EC50 (gag V370A/ΔT371 virus): > 0.05 µM | EC50 [1]: > 0.05 µM | EC50 [2, 4]: 0.022 µM | EC50 [3]: 3 µM

C=C(C)[C@@H]1CC[C@]2(NCCN3CCS(=O)(=O)CC3)CC[C@]3(C)[C@H](CC[C@@H]4[C@@]5(C)CC=C(C6=CCC(CCOc7ncccc7C)(C(=O)O)CC6)C(C)(C)[C@@H]5CC[C@]43C)[C@@H]12 (stereo partly drawn) [Example A28, 4-((1R,3aS,5aR,5bR,7aR,11aS,11bR,13aR,13bR)-3a-((2-(1,1-dioxidothiomorpholino)ethyl)amino)-5a,5b,8,8,11a-pentamethyl-1-(prop-1-en-2-yl)-2,3,3a,4,5,5a,5b,6,7,7a,8,11,11a,11b,12,13,13a,13b-octadecahydro-1H-cyclopenta[a]chrysen-9-yl)-1-(2-((3-methylpyridin-2-yl)oxy)ethyl)cyclohex-3-ene-1-carboxylic acid]
EC50 (gag V370A/ΔT371 virus): 0.068 µM | EC50 [1]: > 0.05 µM | EC50 [2, 4]: < 0.05 µM | EC50 [3]: 0.068 µM

C=C(C)[C@@H]1CC[C@]2(NCCN3CCS(=O)(=O)CC3)CC[C@]3(C)[C@H](CC[C@@H]4[C@@]5(C)CC=C(C6=CCC(CCOc7ncccc7Cl)(C(=O)O)CC6)C(C)(C)[C@@H]5CC[C@]43C)[C@@H]12 (stereo partly drawn) [Example A29, 1-(2-((3-chloropyridin-2-yl)oxy)ethyl)-4-((1R,3aS,5aR,5bR,7aR,11aS,11bR,13aR,13bR)-3a-((2-(1,1-dioxidothiomorpholino)ethyl)amino)-5a,5b,8,8,11a-pentamethyl-1-(prop-1-en-2-yl)-2,3,3a,4,5,5a,5b,6,7,7a,8,11,11a,11b,12,13,13a,13b-octadecahydro-1H-cyclopenta[a]chrysen-9-yl)cyclohex-3-ene-1-carboxylic acid]
EC50 (gag V370A/ΔT371 virus): 0.003 µM | EC50 [1]: 0.004 µM | EC50 [2, 4]: 0.005 µM | EC50 [3]: 0.003 µM

C=C(C)[C@@H]1CC[C@]2(NCCN3CCS(=O)(=O)CC3)CC[C@]3(C)[C@H](CC[C@@H]4[C@@]5(C)CC=C(C6=CCC(CCOc7ncccc7C(F)(F)F)(C(=O)O)CC6)C(C)(C)[C@@H]5CC[C@]43C)[C@@H]12 (stereo partly drawn) [Example A30, 4-((1R,3aS,5aR,5bR,7aR,11aS,11bR,13aR,13bR)-3a-((2-(1,1-dioxidothiomorpholino)ethyl)amino)-5a,5b,8,8,11a-pentamethyl-1-(prop-1-en-2-yl)-2,3,3a,4,5,5a,5b,6,7,7a,8,11,11a,11b,12,13,13a,13b-octadecahydro-1H-cyclopenta[a]chrysen-9-yl)-1-(2-((3-(trifluoromethyl)pyridin-2-yl)oxy)ethyl)cyclohex-3-ene-1-carboxylic acid]
EC50 (gag V370A/ΔT371 virus): 0.223 µM | EC50 [1]: 3 µM | EC50 [2, 4]: 0.013 µM | EC50 [3]: 0.223 µM

C=C(C)[C@@H]1CC[C@]2(NCCN3CCS(=O)(=O)CC3)CC[C@]3(C)[C@H](CC[C@@H]4[C@@]5(C)CC=C(C6=CCC(CCOc7cnccn7)(C(=O)O)CC6)C(C)(C)[C@@H]5CC[C@]43C)[C@@H]12 (stereo partly drawn) [Example A31, 4-((1R,3aS,5aR,5bR,7aR,11aS,11bR,13aR,13bR)-3a-((2-(1,1-dioxidothiomorpholino)ethyl)amino)-5a,5b,8,8,11a-pentamethyl-1-(prop-1-en-2-yl)-2,3,3a,4,5,5a,5b,6,7,7a,8,11,11a,11b,12,13,13a,13b-octadecahydro-1H-cyclopenta[a]chrysen-9-yl)-1-(2-(pyrazin-2-yloxy)ethyl)cyclohex-3-ene-1-carboxylic acid]
EC50 (gag V370A/ΔT371 virus): > 0.05 µM | EC50 [1]: 3 µM | EC50 [2, 4]: 0.003 µM | EC50 [3]: > 0.05 µM

C=C(C)[C@@H]1CC[C@]2(NCCN3CCS(=O)(=O)CC3)CC[C@]3(C)[C@H](CC[C@@H]4[C@@]5(C)CC=C(C6=CCC(CCOc7cc(OC)ccn7)(C(=O)O)CC6)C(C)(C)[C@@H]5CC[C@]43C)[C@@H]12 (stereo partly drawn) [Example A32, 4-((1R,3aS,5aR,5bR,7aR,11aS,11bR,13aR,13bR)-3a-((2-(1,1-dioxidothiomorpholino)ethyl)amino)-5a,5b,8,8,11a-pentamethyl-1-(prop-1-en-2-yl)-2,3,3a,4,5,5a,5b,6,7,7a,8,11,11a,11b,12,13,13a,13b-octadecahydro-1H-cyclopenta[a]chrysen-9-yl)-1-(2-((4-methoxypyridin-2-yl)oxy)ethyl)cyclohex-3-ene-1-carboxylic acid]
EC50 (gag V370A/ΔT371 virus): > 0.05 µM | EC50 [1]: > 0.05 µM | EC50 [2, 4]: 0.006 µM | EC50 [3]: 0.419 µM

C=C(C)[C@@H]1CC[C@]2(NCCN3CCS(=O)(=O)CC3)CC[C@]3(C)[C@H](CC[C@@H]4[C@@]5(C)CC=C(C6=CCC(CCOc7cc(Br)ccn7)(C(=O)O)CC6)C(C)(C)[C@@H]5CC[C@]43C)[C@@H]12 (stereo partly drawn) [Example A33, 1-(2-((4-bromopyridin-2-yl)oxy)ethyl)-4-((1R,3aS,5aR,5bR,7aR,11aS,11bR,13aR,13bR)-3a-((2-(1,1-dioxidothiomorpholino)ethyl)amino)-5a,5b,8,8,11a-pentamethyl-1-(prop-1-en-2-yl)-2,3,3a,4,5,5a,5b,6,7,7a,8,11,11a,11b,12,13,13a,13b-octadecahydro-1H-cyclopenta[a]chrysen-9-yl)cyclohex-3-ene-1-carboxylic acid]
EC50 (gag V370A/ΔT371 virus): > 0.05 µM | EC50 [1]: 1.79 µM | EC50 [2, 4]: 0.006 µM | EC50 [3]: 0.419 µM

C=C(C)[C@@H]1CC[C@]2(NCCN3CCS(=O)(=O)CC3)CC[C@]3(C)[C@H](CC[C@@H]4[C@@]5(C)CC=C(C6=CCC(CCOc7cc(Cl)ccn7)(C(=O)O)CC6)C(C)(C)[C@@H]5CC[C@]43C)[C@@H]12 (stereo partly drawn) [Example A34, 1-(2-((4-chloropyridin-2-yl)oxy)ethyl)-4-((1R,3aS,5aR,5bR,7aR,11aS,11bR,13aR,13bR)-3a-((2-(1,1-dioxidothiomorpholino)ethyl)amino)-5a,5b,8,8,11a-pentamethyl-1-(prop-1-en-2-yl)-2,3,3a,4,5,5a,5b,6,7,7a,8,11,11a,11b,12,13,13a,13b-octadecahydro-1H-cyclopenta[a]chrysen-9-yl)cyclohex-3-ene-1-carboxylic acid]
EC50 (gag V370A/ΔT371 virus): > 0.05 µM | EC50 [1]: 0.064 µM | EC50 [2, 4]: 0.002 µM | EC50 [3]: 0.096 µM

C=C(C)[C@@H]1CC[C@]2(NCCN3CCS(=O)(=O)CC3)CC[C@]3(C)[C@H](CC[C@@H]4[C@@]5(C)CC=C(C6=CCC(CCOc7ccnc(Cl)c7)(C(=O)O)CC6)C(C)(C)[C@@H]5CC[C@]43C)[C@@H]12 (stereo partly drawn) [Example A35, 1-(2-((2-chloropyridin-4-yl)oxy)ethyl)-4-((1R,3aS,5aR,5bR,7aR,11aS,11bR,13aR,13bR)-3a-((2-(1,1-dioxidothiomorpholino)ethyl)amino)-5a,5b,8,8,11a-pentamethyl-1-(prop-1-en-2-yl)-2,3,3a,4,5,5a,5b,6,7,7a,8,11,11a,11b,12,13,13a,13b-octadecahydro-1H-cyclopenta[a]chrysen-9-yl)cyclohex-3-ene-1-carboxylic acid]
EC50 (gag V370A/ΔT371 virus): 3 µM | EC50 [1]: 0.233 µM | EC50 [2, 4]: < 0.05 µM | EC50 [3]: > 0.05 µM

C=C(C)[C@@H]1CC[C@]2(NCCN3CCS(=O)(=O)CC3)CC[C@]3(C)[C@H](CC[C@@H]4[C@@]5(C)CC=C(C6=CCC(COCc7ccccc7C#N)(C(=O)O)CC6)C(C)(C)[C@@H]5CC[C@]43C)[C@@H]12 (some centres unmarked) [reference compound]
EC90 (gag V370A/ΔT371 virus): 2.42 µM | EC90 [1]: 0.228 µM | EC50 [2, 5]: 0.003 µM | EC90 [3]: 2.42 µM

C=C(C)[C@@H]1CC[C@]2(NCCN3CCS(=O)(=O)CC3)CC[C@]3(C)[C@H](CC[C@@H]4[C@@]5(C)CC=C(C6=CCC(COCc7ncccc7C#N)(C(=O)O)CC6)C(C)(C)[C@@H]5CC[C@]43C)[C@@H]12 (some centres unmarked) [reference compound]
EC90 (gag V370A/ΔT371 virus): 1.46 µM | EC90 [1]: 0.34 µM | EC50 [2, 5]: 0.002 µM | EC90 [3]: 1.46 µM
